Data as given in patent US12319710B2, “Catecholamine prodrugs for use in the treatment of Parkinson's diseases” (H. Lundbeck A/S, priority 2019, dated 2025).

Assays:
[1] = PK experiments in rats: plasma compound (I) after oral dosing of prodrug; type: in vivo, Wistar rats; conditions: Wistar rats, oral
Method: Plasma was placed on water-ice following collection. Final storage at approximately −70° C.
Mobile phase B: Acetonitrile. […] Flow rate 0.5 mL/min.
The rats had unrestricted access to the diet.
Mobile phase B: Acetonitrile+0.2% formic acid. […] Flow rate 0.3 mL/min.
Dosing and blood sampling: Han Wistar rats were supplied by Envigo, UK. […] The rats received a standard laboratory diet Teklad 2014C. The rats had unrestricted access to the diet. […] Rats were given […] (Ic), 487 ag/kg compound (7), 487 ag/kg Compound (4), 674 ag/kg compound (9), 359 ag/kg A6 and 551 ag/kg A2.

human 5-HT2B receptor = target: T1, human 5-HT2B receptor (Homo sapiens, UniProt P41595); assay: 5-HT2B agonist activity assay (IP1 production, HTRF, transfected CHO cells); type: cell-based
T1 construct: host or cells: CHO cells (membrane homogenates)
T1 sequence (P41595 whole entry): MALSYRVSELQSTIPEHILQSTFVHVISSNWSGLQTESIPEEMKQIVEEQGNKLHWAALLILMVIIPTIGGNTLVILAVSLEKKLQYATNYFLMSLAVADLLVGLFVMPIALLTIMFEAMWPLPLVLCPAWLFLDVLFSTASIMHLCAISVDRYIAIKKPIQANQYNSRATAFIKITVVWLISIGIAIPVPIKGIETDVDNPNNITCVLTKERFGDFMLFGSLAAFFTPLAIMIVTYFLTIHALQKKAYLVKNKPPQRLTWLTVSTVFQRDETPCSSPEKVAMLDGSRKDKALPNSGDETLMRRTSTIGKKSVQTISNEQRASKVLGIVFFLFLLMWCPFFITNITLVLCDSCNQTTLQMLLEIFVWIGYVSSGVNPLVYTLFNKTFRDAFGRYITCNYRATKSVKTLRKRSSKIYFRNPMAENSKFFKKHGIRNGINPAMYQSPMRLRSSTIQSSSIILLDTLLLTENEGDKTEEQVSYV
Method: Evaluation of the agonist activity of compounds (I), (Ia) and (Ib) at the human 5-HT2B receptor was performed by Eurofins/Cerep (France) measuring the compound effects on inositol monophosphate (IP1) production using the HTRF detection method. Briefly, the human 5-HT2B receptor was expressed in transfected CHO cells. The cells were suspended in a buffer containing 10 mM Hepes/NaOH (pH 7.4), 4.2 mM KCl, 146 mM NaCl, 1 mM CaCl2, 0.5 mM MgCl2, 5.5 mM glucose and 50 mM LiCl, then distributed in microplates at a density of 4100 cells/well and incubated for 30 minutes at 37° C. in the presence of buffer (basal control), test compound or reference agonist. For stimulated control measurement, separate assay wells contained 1 μM 5-HT. Following incubation, the cells were lysed and the fluorescence acceptor (fluorophen D2-labeled IP1) and fluorescence donor (anti-IP1 antibody labeled with europium cryptate) were added. After 60 minutes at room temperature, the fluorescence transfer was measured at lambda(Ex) 337 nm and lambda(Em) 620 and 665 nm using a microplate reader (Rubystar, BMG). The IP1 concentration was determined by dividing the signal measured at 665 nm by that measured at 620 nm (ratio). The results were expressed as a percent of the control response to 1 μM 5-HT. […]

[2] = man, oral dosing; cited from earlier work

Structure (SMILES) | plasma concentrations of compound (I) after oral dosing (in words) [1] | 5-HT2B % @ 30 uM (human 5-HT2B receptor; 30 uM, percent of control response to 1 μM 5-HT) [%] | 5-HT2B receptor agonism (in words) (human 5-HT2B receptor) | oral bioavailability [2] [%]
CCCN1CCC[C@@H]2CC3=C(CCCC3=O)C[C@H]21 [(Ia), reference compound] | early and high peak plasma concentrations of compound (I) | 58 | – | –
CCCN1CCC[C@@H]2Cc3c(ccc4c3OCO4)C[C@H]21 [(Ib), (6aR,10aR)-7-propyl-6,6a,7,8,9,10,10a,11-octahydro-[1,3]dioxolo[4′,5′:5,6]benzo[1,2-g]quinoline, reference compound] | early and high peak plasma concentrations of compound (I) | – | agonist of the 5-HT2B receptor | –
CCCc1cc2c(s1)CN[C@@H]1CCc3cc(OC(C)=O)c(OC(C)=O)cc3[C@@H]21 [Adrogolide] | – | – | – | ~4
